How the values were obtained:
Assay type in all cases: cell-based, human
[1] = system: T cells; experiment: Chemotherapeutic selection of T cells: cell death by propidium iodide staining;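 further: CD3 microbead-isolated T cells cultured with chemotherapy drugs, dead cells scored as propidium iodide-positive by flow cytometry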
Procedure: (§4) T cells were isolated using CD3 microbeads. Cells were resuspended in T cell culture medium and treated under the following conditions. • 1. High dose Vincristine Treatment: Cells were treated with Vincristine (Sigma) at doses of 100, 250, 500, 750, 1000 ng/ml for 24 h. The following day, the medium was changed and cells cultured in Vincristine-free medium. • 2. Intermediate Dose Vincristine Treatment: Cells were treated with vincristine at intermediate doses of 5, 10, 20, 30, 50 ng/ml with continuous exposure of the drug thereafter. • 3. Low dose Vincristine Treatment: Cells were treated with vincristine at low doses 0.5, 1, 2, 2.5, 3 ng/ml with continuous exposure to the drug thereafter.
(§5) Cells were treated with Etoposide at dose 100, 500, 1000 nM • 6. Cells were treated with Adriamycin (doxorubicin) at 0.1, 0.5, 1 μg/ml
(§6) T cells treated with intermediate and high dose of vincristine were checked for Pgp^+ enrichment by DiOC2(3) efflux assay and cell death by Propidium iodide staining after 2 days of treatment. Cells were analyzed by flow cytometry.

[2] = system: Pgp^+ T cells; experiment: Chemotherapeutic selection of T cells: Pgp+ enrichment by DiOC2(3) efflux assay; conditions: for % pgp+ (out of live cells): 8 days post-treatment; for % Pgp^+ (DiOC2(3)-dull) (out of live cells): 2 days post-treatment; for % Pgp+ (DiOC2(3)-dull) (gated on live cells): 7 days post-treatment;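 on all read-outs here: CD3-isolated T cells exposed to chemotherapeutics, then loaded with DiOC2(3) and left to efflux dye, PI stained, flow cytometry, Pgp+ cells read as DiOC2(3)-dull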
Procedure: Half (6 million) of the T cells were left untreated while the remaining half were treated with 10 μM of TH9402 compound. Cells were incubated at 37° C. in a water bath in dark for 40 min, washed with T-cell medium and then resuspended in TH9402-free T-cell medium. Cells were allowed to efflux TH9402 at 37° C. in dark in 10 ml of T cell medium for 2 h. Cells were centrifuged and re-suspended in fresh medium. Each sample was then plated in 2 wells of two different 6-well plates. One plate was left unexposed to light and the second plate was exposed for 1 h to light (1000×10 Lux units) from an LED lamp. […] After light exposure, cells were incubated in the XVIVO T cell medium with 5 ng/ml IL7 at 37° C. for 2 days in a 5% CO2 incubator. After 2 days, an aliquot of the cells were stained at 4° C. for 40 min with DiOC2(3) (60 ng/ml) in 10 ml RPMI with 10% FBS medium. DiOC2(3) is a known substrate of Pgp. Cells were centrifuged, washed, resuspended in 10 ml of dye-free RPMI-10% FBS medium to efflux dye at 37° C. for 90 min. After Dye efflux, the cells were stained with Propidium iodide (PI) and examined by flow cytometry.
as §4, §5, §6

[3] = system: Pgp-expressing T cells; experiment: Photodynamic cell therapy with TH9402: Pgp+ T cells by DiOC2(3) efflux (and CD62L staining); conditions: for % Pgp^+ cells (DiOC2(3)-dull): after 2 days
Procedure: (§1) T cells were isolated using PAN T-cell isolation kit (Miltenyi cat no. 130-096-535) from buffy coat preparation following Ficoll-Hypaque separation and RBC lysis as described above. 12 million T cells were resuspended at 1 million cells/ml in XVIVO T cell medium (Lonza) supplemented with 5 ng/ml IL7. Half (6 million) of the T cells were left untreated while the remaining half were treated with 10 μM of TH9402 compound. Cells were incubated at 37° C. in a water bath in dark for 40 min, washed with T-cell medium and then resuspended in TH9402-free T-cell medium. Cells were allowed to efflux TH9402 at 37° C. in dark in 10 ml of T cell medium for 2 h. Cells were centrifuged and re-suspended in fresh medium. Each sample was then plated in 2 wells of two different 6-well plates. One plate was left unexposed to light and the second plate was exposed for 1 h to light (1000×10 Lux units) from an LED lamp. Alternatively, light treatment can be achieved by exposure to a fluorescent light-scanning device (PDCT-Xerox Series 4, Theratechnologies) delivering 5 J/cm^2 at wavelength of 514 nm. After light exposure, cells were incubated in the XVIVO T cell medium with 5 ng/ml IL7 at 37° C. for 2 days in a 5% CO2 incubator. After 2 days, an aliquot of the cells were stained at 4° C. for 40 min with DiOC2(3) (60 ng/ml) in 10 ml RPMI with 10% FBS medium. DiOC2(3) is a known substrate of Pgp. Cells were centrifuged, washed, resuspended in 10 ml of dye-free RPMI-10% FBS medium to efflux dye at 37° C. for 90 min. After Dye efflux, the cells were stained with Propidium iodide (PI) and examined by flow cytometry. […] Furthermore, in the group that was treated with the TH9402 compound and then exposed to light, there was further enrichment for Pgp-expressing T cells (from 10% to 80%).
(§2) After 6 days, 250 μl cell aliquot from T cells were stained with DiOC2(3), allowed to efflux the dye and then stained with CD62L-APC, a marker present on human memory stem T cells (TSCM) with stem like properties.
(§3) After 9 days, 1 ml cell aliquot from T cells were stained with DiOC2(3), allowed to efflux the dye and then stained with CD62L-APC, a marker present on human memory stem T cells (TSCM) with stem like properties. Cells were then analyzed by flow cytometry. The % of cells in the different fractions are shown in FIG. 2 and the following table which show there is a significant decline in cell viability following exposure to light in both TH9402-treated and untreated cells.

[4] = system: T cells; experiment: Photodynamic cell therapy with TH9402: live T cells by flow cytometry / propidium iodide; conditions: for % live cells (Propidium iodide negative): after 9 days
Procedure: as §1, §2, §3

[5] = system: PBMC; experiment: Photodynamic TH9402 experiment repeated with PBMC; conditions: PBMC rather than purified T cells
[6] = 10 μM TH9402, 1 h exposure to light
[7] = 10 μM TH9402, 1 h exposure to light, after 6 days
[8] = 10 μM TH9402, 1 h exposure to light, after 9 days
[9] = 10 μM TH9402, unexposed to light
[10] = 10 μM TH9402, unexposed to light, after 6 days
[11] = 10 μM TH9402, unexposed to light, after 9 days
[12] = 100 ng/ml for 24 h then drug-free medium
[13] = 250 ng/ml for 24 h then drug-free medium
[14] = 500 ng/ml for 24 h then drug-free medium
[15] = 750 ng/ml for 24 h then drug-free medium
[16] = 1 μg/ml for 24 h then drug-free medium

Structure (SMILES): COc1cccc2c1C(=O)c1c(O)c3c(c(O)c1C2=O)C[C@@](O)(C(=O)CO)C[C@@H]3O[C@H]1C[C@H](N)[C@H](O)[C@H](C)O1 [Adriamycin, doxorubicin]
- % Cell Death (PI+ cells) ([1]; 8 days post-treatment, 0.1 μg/ml): 5%
- % Cell Death (PI+ cells) ([1]; 8 days post-treatment, 0.5 μg/ml): 7%
- % Cell Death (PI+ cells) ([1]; 8 days post-treatment, 1 μg/ml): 12%
- enrichment of Pgp^+ or DiOC2(3)-dull cells (in words) ([2]; 1 μg/ml, after 8 days of treatment): significant enrichment
- % pgp+ (out of live cells) ([2]; 0.1 μg/ml): 16%
- % pgp+ (out of live cells) ([2]; 0.5 μg/ml): 16%
- % pgp+ (out of live cells) ([2]; 1 μg/ml): 27%

Structure (SMILES): COc1cc([C@@H]2c3cc4c(cc3[C@@H](O[C@@H]3O[C@@H]5CO[C@@H](C)O[C@H]5[C@H](O)[C@H]3O)[C@H]3COC(=O)[C@H]23)OCO4)cc(OC)c1O [Etoposide]
- % Cell Death (PI+ cells) ([1]; 8 days post-treatment, 0.1 uM): 5%
- % Cell Death (PI+ cells) ([1]; 8 days post-treatment, 1 uM): 5%
- % Cell Death (PI+ cells) ([1]; 8 days post-treatment, 0.5 unM): 4%
- % pgp+ (out of live cells) ([2]; 0.1 uM): 15%
- % pgp+ (out of live cells) ([2]; 1 uM): 15%
- % pgp+ (out of live cells) ([2]; 0.5 unM): 16%

Structure (SMILES): CO[C@H]1C[C@@H]2CC[C@@H](C)[C@@](O)(O2)C(=O)C(=O)N2CCCC[C@H]2C(=O)O[C@H]([C@H](C)C[C@@H]2CC[C@@H](O)[C@H](OC)C2)CC(=O)[C@H](C)/C=C(\C)[C@@H](O)[C@@H](OC)C(=O)[C@H](C)C[C@H](C)/C=C/C=C/C=C/1C [Rapamycin]
- % Cell Death (PI+ cells) ([1]; 8 days post-treatment, 100 ng/ml): 11%
- % pgp+ (out of live cells) ([2]; 100 ng/ml): 15%

Structure (SMILES): COC(=O)c1ccccc1-c1c2ccc(=N)c(Br)c-2oc2c(Br)c(N)ccc12 [TH9402]
- % Pgp^+ cells (DiOC2(3)-dull) [3, 6]: 80%
- % Pgp^+ (DiOC2(3)-dull cells (based on dye efflux) (gated on live cells)) [3, 7]: 70%
- % Pgp^+ (DiOC2(3)-dull), CD62L+ cells (gated on live cells) [3, 7]: 69%
- % Pgp^+ (DiOC2(3)-dull cells (based on dye efflux) (gated on live cells)) [3, 8]: 79%
- % Pgp^+ (DiOC2(3)-dull), CD62L+ cells (gated on live cells) [3, 8]: 67%
- % Pgp^+ cells (DiOC2(3)-dull) [3, 9]: 10%
- % Pgp^+ (DiOC2(3)-dull cells (based on dye efflux) (gated on live cells)) [3, 10]: 4%
- % Pgp^+ (DiOC2(3)-dull), CD62L+ cells (gated on live cells) [3, 10]: 2%
- % Pgp^+ (DiOC2(3)-dull cells (based on dye efflux) (gated on live cells)) [3, 11]: 45%
- % Pgp^+ (DiOC2(3)-dull), CD62L+ cells (gated on live cells) [3, 11]: 21%
- % live cells (P1) ([4]; 10 μM TH9402, 1 h exposure to light, after 2 days): 10%
- % live cells (P1) [4, 7]: 14%
- % live cells (Propidium iodide negative) [4, 6]: 27%
- % live cells (P1) ([4]; 10 μM TH9402, unexposed to light, after 2 days): 78%
- % live cells (P1) [4, 10]: 75%
- % live cells (Propidium iodide negative) [4, 9]: 79%
- enrichment of Pgp-expressing cells, experiment repeated with PBMC [5]: Essentially similar results

Structure (SMILES): COc1ccc(CCN(C)CCCC(C#N)(c2ccc(OC)c(OC)c2)C(C)C)cc1OC (stereo not drawn) [Verapamil]
- % Cell Death (PI+ cells) ([1]; 8 days post-treatment, 1 uM): 4%
- % Cell Death (PI+ cells) ([1]; 8 days post-treatment, 5 uM): 3%
- % Cell Death (PI+ cells) ([1]; 8 days post-treatment, 10 uM): 3%

Structure (SMILES): CC[C@]1(O)C[C@H]2CN(CCc3c([nH]c4ccccc34)[C@@](C(=O)OC)(c3cc4c(cc3OC)N(C=O)[C@H]3[C@@](O)(C(=O)OC)[C@H](OC(C)=O)[C@]5(CC)C=CCN6CC[C@]43[C@@H]65)C2)C1 [Vincristine]
- % Cell Death (PI+ cells) ([1]; 2 days post-treatment, 5 ng/ml, continuous exposure): 13%
- % Cell Death (PI+ cells) ([1]; 2 days post-treatment, 10 ng/ml, continuous exposure): 15%
- % Cell Death (PI+ cells) ([1]; 2 days post-treatment, 20 ng/ml, continuous exposure): 15%
- % Cell Death (PI+ cells) ([1]; 2 days post-treatment, 30 ng/ml, continuous exposure): 20%
- % Cell Death (PI+ cells) ([1]; 2 days post-treatment, 50 ng/ml, continuous exposure): 15%
- % Cell Death (PI+ cells) ([1]; 2 days post-treatment, 100 ng/ml for 24 h then drug-free medium): 28%
- % Cell Death (PI+ cells) ([1]; 2 days post-treatment, 250 ng/ml for 24 h then drug-free medium): 31%
- % Cell Death (PI+ cells) ([1]; 2 days post-treatment, 500 ng/ml for 24 h then drug-free medium): 27%
- % Cell Death (PI+ cells) ([1]; 2 days post-treatment, 750 ng/ml for 24 h then drug-free medium): 30%
- % Cell Death (PI+ cells) ([1]; 2 days post-treatment, 1 μg/ml for 24 h then drug-free medium): 31%
- % Cell Death (PI+ cells) ([1]; 7 days post-treatment, 0.5 ng/ml, continuous exposure): 10%
- % Cell Death (PI+ cells) ([1]; 7 days post-treatment, 1 ng/ml, continuous exposure): 12%
- % Cell Death (PI+ cells) ([1]; 7 days post-treatment, 2 ng/ml, continuous exposure): 8%
- % Cell Death (PI+ cells) ([1]; 7 days post-treatment, 2.5 ng/ml, continuous exposure): 10%
- % Cell Death (PI+ cells) ([1]; 7 days post-treatment, 3 ng/ml, continuous exposure): 14%
- % Cell Death (PI+ cells) ([1]; 7 days post-treatment, 5 ng/ml, continuous exposure): 9%
- % Cell Death (PI+ cells) ([1]; 7 days post-treatment, 10 ng/ml, continuous exposure): 9%
- % Cell Death (PI+ cells) ([1]; 7 days post-treatment, 20 ng/ml, continuous exposure): 9%
- % Cell Death (PI+ cells) ([1]; 7 days post-treatment, 50 ng/ml, continuous exposure): 14%
- % Cell Death (PI+ cells) ([1]; 7 days post-treatment, 100 ng/ml for 24 h then drug-free medium): 16%
- % Cell Death (PI+ cells) ([1]; 7 days post-treatment, 250 ng/ml for 24 h then drug-free medium): 25%
- % Cell Death (PI+ cells) ([1]; 7 days post-treatment, 500 ng/ml for 24 h then drug-free medium): 26%
- % Cell Death (PI+ cells) ([1]; 7 days post-treatment, 750 ng/ml for 24 h then drug-free medium): 29%
- % Cell Death (PI+ cells) ([1]; 7 days post-treatment, 1 μg/ml for 24 h then drug-free medium): 23%
- % Pgp^+ (DiOC2(3)-dull) (out of live cells) ([2]; 5 ng/ml, continuous exposure): 8%
- % Pgp^+ (DiOC2(3)-dull) (out of live cells) ([2]; 10 ng/ml, continuous exposure): 9%
- % Pgp^+ (DiOC2(3)-dull) (out of live cells) ([2]; 20 ng/ml, continuous exposure): 9%
- % Pgp^+ (DiOC2(3)-dull) (out of live cells) ([2]; 30 ng/ml, continuous exposure): 11%
- % Pgp^+ (DiOC2(3)-dull) (out of live cells) ([2]; 50 ng/ml, continuous exposure): 10%
- % Pgp^+ (DiOC2(3)-dull) (out of live cells) [2, 12]: 11%
- % Pgp^+ (DiOC2(3)-dull) (out of live cells) [2, 13]: 11%
- % Pgp^+ (DiOC2(3)-dull) (out of live cells) [2, 14]: 13%
- % Pgp^+ (DiOC2(3)-dull) (out of live cells) [2, 15]: 14%
- % Pgp^+ (DiOC2(3)-dull) (out of live cells) [2, 16]: 14%
- % Pgp+ (DiOC2(3)-dull) (gated on live cells) ([2]; 0.5 ng/ml, continuous exposure): 7%
- % Pgp+ (DiOC2(3)-dull) (gated on live cells) ([2]; 1 ng/ml, continuous exposure): 7%
- % Pgp+ (DiOC2(3)-dull) (gated on live cells) ([2]; 2 ng/ml, continuous exposure): 7%
- % Pgp+ (DiOC2(3)-dull) (gated on live cells) ([2]; 2.5 ng/ml, continuous exposure): 7%
- % Pgp+ (DiOC2(3)-dull) (gated on live cells) ([2]; 3 ng/ml, continuous exposure): 9%
- % Pgp+ (DiOC2(3)-dull) (gated on live cells) ([2]; 5 ng/ml, continuous exposure): 8%
- % Pgp+ (DiOC2(3)-dull) (gated on live cells) ([2]; 10 ng/ml, continuous exposure): 10%
- % Pgp+ (DiOC2(3)-dull) (gated on live cells) ([2]; 20 ng/ml, continuous exposure): 10%
- % Pgp+ (DiOC2(3)-dull) (gated on live cells) ([2]; 50 ng/ml, continuous exposure): 9%
- % Pgp+ (DiOC2(3)-dull) (gated on live cells) [2, 12]: 13%
- % Pgp+ (DiOC2(3)-dull) (gated on live cells) [2, 13]: 11%
- % Pgp+ (DiOC2(3)-dull) (gated on live cells) [2, 14]: 9%
- % Pgp+ (DiOC2(3)-dull) (gated on live cells) [2, 15]: 10%
- % Pgp+ (DiOC2(3)-dull) (gated on live cells) [2, 16]: 18%
- enrichment of Pgp^+ cells (in words) ([2]; higher dose treatments, after 2 days): modest enrichment

From US12415987B2, “Methods and composition for producing and using immune cells and stem cells for cell-based therapies” (Angeles Therapeutics, Inc., priority 2016, dated 2025)
